Assay results from article PMC11641365, “Evaluation of In Vitro Biological Activity of Flavanone/Chromanone Derivatives: Molecular Analysis of Anticancer Mechanisms in Colorectal Cancer” (International Journal of Molecular Sciences, 2024).

How the values were obtained:
Assay type in all cases: cell-based, human
[1] = test system: Caco-2; assay: Hydrogen peroxide level, H2DCFDA probe; details: compound at IC50, 24 h, vs control
Description: (§1) Cellular H2O2 levels were assessed using 2′,7′-dichlorodihydrofluorescein diacetate (H2DCFDA, Sigma-Aldrich, St. Louis, MO, USA), a well-established fluorogenic probe for intracellular hydrogen peroxide detection. H2DCFDA readily diffuses across the cell membrane and is subsequently hydrolyzed by intracellular esterases to non-fluorescent H2DCF. Oxidation of H2DCF by ROS generates highly fluorescent 2′,7′-dichlorofluorescein (DCF), which accumulates in the cytosol. […] The fluorescence intensity of DCF is directly proportional to the concentration of ROS within the cell.
(§2) Cells were seeded in black 96-well fluorometric microplates at a density of 10 × 10^3 cells/mL. […] Following compound incubation, the medium was removed, and the cell monolayers were washed twice with HBSS (140 mM NaCl, 5 mM KCl, 0.8 mM MgCl2, 1.8 mM CaCl2, 1 mM Na2HPO4, 10 mM HEPES, and 1% glucose). A volume of 50 µL of H2DCFDA solution in HBSS (final concentration 5 μM) was added to each well, and the cells were incubated for 30 min in the dark at 37 °C. After incubation with the H2DCFDA, fluorescence measurements were conducted using a Perkin-Elmer LS-5B spectrofluorometer (MA, USA) at the following excitation and fluorescence emission wavelengths: λex = 498 nm/λem = 522 nm. The fluorescence intensity of control cells was arbitrarily assigned a value of 100%. The results were expressed as percentages of control, calculated by comparing the fluorescence intensity ratio of the test samples to controls (100%). The fluorescence of samples was denoted as Δf in relation to the control.

[2] = test system: SW620; assay: Alkaline comet assay (DNA damage); details: compound at IC50, 12 h, vs control group
Excerpt: Single-cell gel electrophoresis, also known as the comet assay, is a rapid and sensitive method for assessing DNA damage at the single-cell level. Cells are lysed and electrophoresed. Both single-strand and double-strand breaks are detected under alkaline conditions. The released DNA is denatured and moves in the agarose gel toward the anode during electrophoresis. The image, obtained after staining with the fluorescent dye 4′,6-diamidino-2-phenylindole (DAPI), resembles a “comet” with a distinct “head” (intact DNA) and “tail” (damaged DNA fragments). The length of the tail depends on the number and size of the broken DNA strands.
Cells (1 × 10^3) were seeded in 35 mm dishes and cultured in the medium for 24 h to attain the logarithmic growth phase. […] Quantitative analysis of the DNA comet image of preparations stained with DAPI solution (2 μg/L) was performed using a camera connected to a fluorescence microscope. The comet DNA analysis was performed under a Nikon Eclipse fluorescence microscope (Nikon, Tokyo, Japan) equipped with a 4910 COHU video camera (Cohu, Inc., San Diego, CA, USA) and a computer with Lucia-Comet v. […] Each time, from each preparation, 100 randomly selected comets were counted. The extent of DNA damage is quantified by measuring the length of the comet tail and the amount of DNA it contains. […]

[3] = test system: SW620; assay: MTT test after pre-incubation with antioxidants NAC or Trolox; details: vs cells without antioxidant pre-incubation
Description: Moreover, the elevation of ROS levels was accompanied by a decrease in intracellular GSH. To investigate the role of ROS in the cytotoxic activity of flavonoid derivatives against cancer cells, LoVo cancer cells were pre-treated with antioxidants, NAC or a water-soluble derivative of vitamin E (Trolox), for 1 h before exposure to the studied compounds. Subsequently, the MTT assay was performed.
To elucidate the involvement of ROS in the cytotoxic effects of the investigated compounds, cells were pre-treated with the vitamin E (Trolox, Sigma-Aldrich, St. Louis, MO, USA) or N-Acetylcysteine (NAC) antioxidants for 1 h. Cells were seeded into sterile, colorless 96-well microplates at a density of 6–8 × 10^3 cells/mL, contingent upon the cell line. Following a 24 h culture period, Trolox or NAC was added at a final concentration of 50 μM and 3 mM, respectively. After 1 h of incubation, the antioxidants were removed by washing, and test compounds were administered at appropriate concentrations (10–200 μM) in fresh cell culture medium, followed by a 24 h incubation. The MTT assay was then conducted under identical experimental conditions, as detailed in Section 2.2.

[4] = test system: HCT 116; assay: Hydrogen peroxide level, H2DCFDA probe; details: compound at IC50, 24 h
Description: as §1, §2

[5] = test system: SW620; assay: Hydrogen peroxide level, H2DCFDA probe; details: compound at IC50, 24 h, vs control
Description: as §1, §2

O=C1/C(=C/c2ccccc2)COc2ccccc21 [Compound 1]
Increase in H2O2 levels [1]: approximately 25%

COc1cccc(/C=C2/C(=O)c3ccccc3OC2c2ccccc2)c1 (centres unmarked) [Compound 3]
Increase in DNA content in the comet tail [2]: approximately 40%

O=C1/C(=C/c2ccccc2)C(c2ccccc2)Oc2ccccc21 (centres unmarked) [Compound 5]
Change of the IC50 value after pre-incubation with Trolox [3]: Statistically significant increases in the IC50 value | Effect on H2O2 levels [4]: did not affect H2O2 levels | Increase in H2O2 levels [5]: 15%
